# Laboratory results as given in US9187413B2, “Peripherally restricted FAAH inhibitors” (The Regents of the University of California, priority 2010, dated 2015).
# Legend:
# sciatic nerve ligation = experiment: Sciatic nerve ligation pain behavior; format: in vivo; conditions: mice
# Description: Surgery. We performed sciatic nerve ligations in male Swiss mice, as previously described for rats^24 with minor modifications^39.
# Behavioral tests. We measured nocifensive responses elicited by i.p. injection of acetic acid in male Swiss and C57B1/6 (wild-type or FAAH-deficient) mice^40, intraplantar injection of carrageenan in male Swiss mice^20, intraplantar injection of formalin in male Sprague-Dawley rats^41, and sciatic nerve ligation in male Swiss mice^39.
# Surgeries All surgeries were conducted under aseptical conditions. Implantation of cannulae for intracerebroventricular (i.c.v.) drug administration. SD rats were anesthesized using a mixture of ketamine (70 mg-kg^−1, i.p.) and xylazine (9.33 mg-kg^−1, i.p.). They were placed in a stereotaxic frame and stabilized by ear bars (David Kopf Instruments, Tujunga, Calif., USA) with the incisor bar set 2.4 mm below the horizontal plane. A 22-gauge stainless-steel guide cannula was implanted into the right lateral cerebral ventricle 7 days prior to experiments. Coordinates for implantation (−0.9 mm antero/posterior and −1.5 mm medio/lateral relative to bregma, and 3.8 mm below the surface of the skull) were determined using the Paxinos and Watson rat brain atlas^45. Guide cannulae were anchored to the skull with 3 stainless-steel screws and dental cement, and were kept patent until injection by insertion of a dummy stylet. […]
# Behavioral tests Acetic acid-induced writhing was measured in Swiss mice or C57B1/6 mice (wild-type and FAAH-deficient), as described^40 with minor modifications. […] Abdominal stretches (extension of body and hind limbs) were counted for 20 min, starting 5 min after acetic acid injection. […] Behavior was scored by an observer blinded to the treatment conditions. Formalin-induced nociception was assessed in Sprague-Dawley rats, as described^41. […]
# Fos protein = experiment: Formalin-induced Fos expression in lumbar spinal cord; format: in vivo; conditions: rats, URB937 1 mg-kg^-1, i.p., lumbar spinal cord
# Procedure: Fos expression. We measured Fos protein levels by quantitative immunocytochemistry^5 on slices of lumbar (L4/L5) spinal cord from male Sprague-Dawley rats.
# Fos immunohistochemistry Two hours after formalin injection into the dorsal paw, rats received a lethal dose of Nembutal (50 mg-mL^−1). They were perfused through the heart with 100 mL of 1% heparinized phosphate buffered saline (PBS) followed by 300 mL of ice-cold 4% paraformaldehyde. The lumbar-sacral region of the spinal cord was collected from each rat. Spinal cords were post fixed in 4% paraformaldehyde at 4° C. for 24 h and then cryoprotected in 30% sucrose at 4° C. for 24-48 hours. Spinal cords were cryostat-cut into 40 μm transverse sections at the level of the lumbar enlargement (L4/L5). Free floating alternating sections were kept in a series of wells filled with PBS. Every fourth section was processed for Fos immunoreactivity to ensure that the same cell would not be counted twice. Endogenous peroxidases were inactivated by incubation in hydrogen peroxide. […]
# Selection of sections and quantification of the number of Fos-positive cells was performed by an observer blinded to experimental conditions. […] Using Image J, Fos expressing cells were counted in each subdivision, regardless of staining intensity, by an observer blinded to experimental treatments.
# [1] = single dose 1 mg-kg^-1, i.p., 2 h before testing, one week after surgery, operated paws
smiles,measurement,setting,value
"NC(=O)c1cccc(-c2cc(OC(=O)NC3CCCCC3)ccc2O)c1 [Compound 1b, cyclohexylcarbamic acid 3′-carbamoyl-6-hydroxybiphenyl-3-yl ester]",antinociceptive effect of repeated injections after sciatic nerve ligation,"sciatic nerve ligation; 1 mg-kg^-1, i.p., once daily for 4 days, starting 3 days after ligation",undistinguishable from that caused by single drug dosing
same,mechanical hyperalgesia and mechanical allodynia after sciatic nerve ligation,sciatic nerve ligation; [1],suppressed mechanical hyperalgesia and mechanical allodynia
same,thermal hyperalgesia after sciatic nerve ligation,sciatic nerve ligation; [1],attenuated thermal hyperalgesia
same,formalin-induced Fos expression,Fos protein,lowered the Fos response to formalin
